Experimental data from ChEMBL document CHEMBL3885861, “Open TG-GATES”.

Organism: Rattus norvegicus
Assay: Open TG-GATES - Regimen: Single
Assay type: toxicity, organism-based, Sprague-Dawley
Parameters: regimen Single, gender Male, age 6 weeks
Settings: in vivo, po, 1000 mg/kg, route gavage, dose level High; for APTT / Bas / Eos / Fbg / Hb / Ht / Lym / MCH / MCHC / MCV / Mono / Neu / PT / Plat / RBC / Ret / WBC: tissue Blood; for KIDNEY_L / KIDNEY_R / KIDNEY_TOTAL: tissue Kidney; for LIVER: tissue Liver; for A/G / ALP / ALT / AST / BUN / CRE / Ca / Cl / DBIL / GLC / IP / K / LDH / Na / PL / RALB / TBIL / TC / TG / TP / gamma-GTP: tissue Plasma

CN(C)[C@@H]1C(O)=C(C(N)=O)C(=O)[C@@]2(O)C(O)=C3C(=O)c4c(O)cccc4[C@@](C)(O)[C@H]3C[C@@H]12 [TETRACYCLINE]
TERMINAL_BW (3 h): 185.9 g | APTT (3 h): 15.7 s | Bas (3 h): 0% | Eos (3 h): 0.4% | Fbg (3 h): 217.2 mg/dL | Hb (3 h): 13.5 g/dL | Ht (3 h): 40.5% | Lym (3 h): 79.8% | MCH (3 h): 22.1 pg | MCHC (3 h): 33.3% | MCV (3 h): 66.4 fL | Mono (3 h): 6.4% | Neu (3 h): 13.2% | PT (3 h): 11.9 s | Plat (3 h): 103.4 x10_4/uL | RBC (3 h): 610 x10_4/ul | Ret (3 h): 9.5% | WBC (3 h): 108.1 x10_2/uL | KIDNEY_L (3 h): 0.8 g | KIDNEY_R (3 h): 0.8 g | KIDNEY_TOTAL (3 h): 1.7 g | LIVER (3 h): 8.5 g | A/G (3 h): 2.2 | ALP (3 h): 770.2 IU/L | ALT (3 h): 44 IU/L | AST (3 h): 72.8 IU/L | BUN (3 h): 15.6 mg/dL | CRE (3 h): 0.5 mg/dL | Ca (3 h): 11.1 mg/dL | Cl (3 h): 105.8 meq/L | DBIL (3 h): 0.03 mg/dL | GLC (3 h): 184.8 mg/dL | IP (3 h): 12 mg/dL | K (3 h): 5 meq/L | LDH (3 h): 142.4 IU/L | Na (3 h): 138 meq/L | PL (3 h): 132 mg/dL | RALB (3 h): 3.8 g/dL | TBIL (3 h): 0.6 mg/dL | TC (3 h): 77.8 mg/dL | TG (3 h): 36.8 mg/dL | TP (3 h): 5.6 g/dL | gamma-GTP (3 h): 1.8 IU/L | TERMINAL_BW (6 h): 184.3 g | APTT (6 h): 17.2 s | Bas (6 h): 0% | Eos (6 h): 0.4% | Fbg (6 h): 193 mg/dL | Hb (6 h): 13.4 g/dL | Ht (6 h): 40.4% | Lym (6 h): 79% | MCH (6 h): 21.9 pg | MCHC (6 h): 33.1% | MCV (6 h): 66.1 fL | Mono (6 h): 7.2% | Neu (6 h): 13.4% | PT (6 h): 12.2 s | Plat (6 h): 101.1 x10_4/uL | RBC (6 h): 612.4 x10_4/ul | Ret (6 h): 10.1% | WBC (6 h): 100.4 x10_2/uL | KIDNEY_L (6 h): 0.9 g | KIDNEY_R (6 h): 0.9 g | KIDNEY_TOTAL (6 h): 1.8 g | LIVER (6 h): 8.1 g | A/G (6 h): 1.8 | ALP (6 h): 872.8 IU/L | ALT (6 h): 39 IU/L | AST (6 h): 74.2 IU/L | BUN (6 h): 13.4 mg/dL | CRE (6 h): 0.4 mg/dL | Ca (6 h): 10.9 mg/dL | Cl (6 h): 106.4 meq/L | DBIL (6 h): 0.018 mg/dL | GLC (6 h): 186.6 mg/dL | IP (6 h): 11.9 mg/dL | K (6 h): 5.4 meq/L | LDH (6 h): 128.4 IU/L | Na (6 h): 137.4 meq/L | PL (6 h): 127 mg/dL | RALB (6 h): 3.4 g/dL | TBIL (6 h): 0.4 mg/dL | TC (6 h): 71.2 mg/dL | TG (6 h): 36.2 mg/dL | TP (6 h): 5.2 g/dL | gamma-GTP (6 h): 1.6 IU/L | TERMINAL_BW (9 h): 180.6 g | APTT (9 h): 16.8 s | Bas (9 h): 0% | Eos (9 h): 0.2% | Fbg (9 h): 199.2 mg/dL | Hb (9 h): 13.1 g/dL | Ht (9 h): 40% | Lym (9 h): 83.4% | MCH (9 h): 21.5 pg | MCHC (9 h): 32.8% | MCV (9 h): 65.4 fL | Mono (9 h): 5.8% | Neu (9 h): 11% | PT (9 h): 12.3 s | Plat (9 h): 104 x10_4/uL | RBC (9 h): 610.6 x10_4/ul | Ret (9 h): 8.9% | WBC (9 h): 66.5 x10_2/uL | KIDNEY_L (9 h): 0.8 g | KIDNEY_R (9 h): 0.8 g | KIDNEY_TOTAL (9 h): 1.6 g | LIVER (9 h): 7.7 g | A/G (9 h): 2.2 | ALP (9 h): 769.6 IU/L | ALT (9 h): 33.8 IU/L | AST (9 h): 66.4 IU/L | BUN (9 h): 12.8 mg/dL | CRE (9 h): 0.4 mg/dL | Ca (9 h): 11 mg/dL | Cl (9 h): 107.4 meq/L | DBIL (9 h): 0.044 mg/dL | GLC (9 h): 192.4 mg/dL | IP (9 h): 11.5 mg/dL | K (9 h): 4.9 meq/L | LDH (9 h): 136.2 IU/L | Na (9 h): 139.8 meq/L | PL (9 h): 128.8 mg/dL | RALB (9 h): 3.7 g/dL | TBIL (9 h): 0.4 mg/dL | TC (9 h): 69.4 mg/dL | TG (9 h): 25.6 mg/dL | TP (9 h): 5.4 g/dL | gamma-GTP (9 h): 1.2 IU/L | TERMINAL_BW (24 h): 200.2 g | APTT (24 h): 16.8 s | Bas (24 h): 0% | Eos (24 h): 0.6% | Fbg (24 h): 208.8 mg/dL | Hb (24 h): 13.4 g/dL | Ht (24 h): 40.5% | Lym (24 h): 84.2% | MCH (24 h): 21.5 pg | MCHC (24 h): 33% | MCV (24 h): 65.1 fL | Mono (24 h): 7% | Neu (24 h): 8.2% | PT (24 h): 11.9 s | Plat (24 h): 105 x10_4/uL | RBC (24 h): 621.8 x10_4/ul | Ret (24 h): 8.9% | WBC (24 h): 88.7 x10_2/uL | KIDNEY_L (24 h): 0.9 g | KIDNEY_R (24 h): 0.9 g | KIDNEY_TOTAL (24 h): 1.9 g | LIVER (24 h): 8.9 g | A/G (24 h): 2.2 | ALP (24 h): 948 IU/L | ALT (24 h): 44 IU/L | AST (24 h): 77.2 IU/L | BUN (24 h): 17.8 mg/dL | CRE (24 h): 0.5 mg/dL | Ca (24 h): 11.2 mg/dL | Cl (24 h): 105.6 meq/L | DBIL (24 h): 0.006 mg/dL | GLC (24 h): 180.4 mg/dL | IP (24 h): 9.8 mg/dL | K (24 h): 5 meq/L | LDH (24 h): 147 IU/L | Na (24 h): 141.6 meq/L | PL (24 h): 142.6 mg/dL | RALB (24 h): 3.8 g/dL | TBIL (24 h): 0.3 mg/dL | TC (24 h): 74 mg/dL | TG (24 h): 50.2 mg/dL | TP (24 h): 5.6 g/dL | gamma-GTP (24 h): 1 IU/L
